“And” between values parts separate entries of the source, which are not always exact repeats. Identical values can stand only once. Inconclusive results and toxic doses are left out.
System: CD2F1 mice, L1210 leukemia ip, survival T/C
Assay: NCI In Vivo Anticancer Drug Screen. Data for tumor model L1210 Leukemia (intraperitoneal) in CD2F1 (CDF1) mice
Conditions: higher = longer survival
Outline: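 Transplantable tumor in mice; compound-treated vs vehicle-treated groups. Read-out = treated/control ratio of the measured endpoint.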

[1] = endpoint: mean survival time, dose: 25.0 mg/kg/injection, schedule: Q01DX009 (ip), vehicle: saline with Tween-80
[2] = endpoint: mean survival time, dose: 100.0 mg/kg/injection, schedule: Q01DX001 (ip), vehicle: saline with Tween-80
[3] = endpoint: mean survival time, dose: 100.0 mg/kg/injection, schedule: Q04DX002 (ip), vehicle: saline with Tween-80
[4] = endpoint: mean survival time, dose: 100.0 mg/kg/injection, schedule: Q04DX003 (ip), vehicle: saline with Tween-80
[5] = endpoint: mean survival time, dose: 200.0 mg/kg/injection, schedule: Q01DX009 (ip), vehicle: saline with Tween-80
[6] = endpoint: mean survival time, dose: 200.0 mg/kg/injection, schedule: Q04DX002 (ip), vehicle: saline with Tween-80
[7] = endpoint: mean survival time, dose: 200.0 mg/kg/injection, schedule: Q04DX003 (ip), vehicle: saline with Tween-80
[8] = endpoint: mean survival time, dose: 400.0 mg/kg/injection, schedule: Q04DX002 (ip), vehicle: saline with Tween-80
[9] = endpoint: mean survival time, dose: 400.0 mg/kg/injection, schedule: Q04DX003 (ip), vehicle: saline with Tween-80

C=C1C(=O)C23[C@H](O)C1CC[C@H]2[C@]12COC3(O)[C@@H](O)[C@@H]1C(C)(C)CC[C@@H]2O
T/C (endpoint: mean survival time, dose: 1.56 mg/kg/injection, schedule: Q01DX009 (ip), vehicle: saline with Tween-80): 97 % of control and 111 % of control | T/C (endpoint: mean survival time, dose: 3.12 mg/kg/injection, schedule: Q01DX009 (ip), vehicle: saline with Tween-80): 102 % of control and 103 % of control | T/C (endpoint: mean survival time, dose: 4.5 mg/kg/injection, schedule: Q01DX009 (ip), vehicle: Klucel (hydroxypropylcellulose) (HPC)): 93 % of control and 105 % of control and 107 % of control | T/C (endpoint: mean survival time, dose: 6.25 mg/kg/injection, schedule: Q01DX009 (ip), vehicle: saline with Tween-80): 96 % of control and 102 % of control | T/C (endpoint: mean survival time, dose: 9.0 mg/kg/injection, schedule: Q01DX009 (ip), vehicle: Klucel (hydroxypropylcellulose) (HPC)): 95 % of control and 97 % of control | T/C (endpoint: mean survival time, dose: 12.5 mg/kg/injection, schedule: Q01DX009 (ip), vehicle: saline with Tween-80): 97 % of control and 105 % of control | T/C (endpoint: mean survival time, dose: 18.0 mg/kg/injection, schedule: Q01DX009 (ip), vehicle: Klucel (hydroxypropylcellulose) (HPC)): 93 % of control and 101 % of control and 107 % of control | T/C [1]: 102 % of control and 105 % of control | T/C (endpoint: mean survival time, dose: 36.0 mg/kg/injection, schedule: Q01DX009 (ip), vehicle: Klucel (hydroxypropylcellulose) (HPC)): 90 % of control and 107 % of control

CCN(CC)c1cc(Cl)ccc1Cl
T/C (endpoint: mean survival time, dose: 25.0 mg/kg/injection, schedule: Q01DX009 (ip), vehicle: saline): 102 % of control | T/C (endpoint: mean survival time, dose: 25.0 mg/kg/injection, schedule: Q04DX002 (ip), vehicle: saline with Tween-80): 91 % of control | T/C (endpoint: mean survival time, dose: 50.0 mg/kg/injection, schedule: Q01DX009 (ip), vehicle: saline): 101 % of control | T/C (endpoint: mean survival time, dose: 50.0 mg/kg/injection, schedule: Q04DX002 (ip), vehicle: saline with Tween-80): 95 % of control | T/C [2]: 98 % of control | T/C (endpoint: mean survival time, dose: 100.0 mg/kg/injection, schedule: Q01DX009 (ip), vehicle: saline): 101 % of control

Cc1cc(NC(=O)Oc2ccc([N+](=O)[O-])cc2)ccc1S(=O)(=O)F
T/C [1]: 91 % of control and 98 % of control | T/C (endpoint: mean survival time, dose: 50.0 mg/kg/injection, schedule: Q01DX009 (ip), vehicle: saline with Tween-80): 87 % of control and 96 % of control | T/C [2]: 95 % of control | T/C [3]: 93 % of control and 100 % of control | T/C [4]: 94 % of control | T/C (endpoint: mean survival time, dose: 200.0 mg/kg/injection, schedule: Q01DX001 (ip), vehicle: saline with Tween-80): 101 % of control | T/C [5]: 91 % of control | T/C [6]: 93 % of control and 107 % of control | T/C [7]: 96 % of control | T/C (endpoint: mean survival time, dose: 400.0 mg/kg/injection, schedule: Q01DX001 (ip), vehicle: saline with Tween-80): 98 % of control | T/C [8]: 100 % of control and 103 % of control | T/C [9]: 102 % of control

C/C(=N\Nc1ccccc1)C1=C(O)C(Cc2ccccc2)NC1=O (configuration not stated)
T/C [3]: 100 % of control | T/C [6]: 100 % of control | T/C [8]: 103 % of control

O=C1C=CC(=O)C(SCCC(=O)O)=C1
T/C (endpoint: mean survival time, dose: 50.0 mg/kg/injection, schedule: Q04DX003 (ip), vehicle: saline with Tween-80): 94 % of control | T/C [4]: 96 % of control | T/C [7]: 111 % of control

[Cl][Pt+2][Cl].[NH-]C(c1ccccc1)C([NH-])c1ccccc1 (configuration not stated)
T/C (endpoint: mean survival time, dose: 6.25 mg/kg/injection, schedule: Q04DX003 (ip), vehicle: saline with Tween-80): 112 % of control and 110 % of control and 96 % of control | T/C (endpoint: mean survival time, dose: 12.5 mg/kg/injection, schedule: Q04DX003 (ip), vehicle: saline with Tween-80): 102 % of control and 114 % of control and 106 % of control | T/C (endpoint: mean survival time, dose: 25.0 mg/kg/injection, schedule: Q04DX003 (ip), vehicle: saline with Tween-80): 120 % of control and 124 % of control and 114 % of control | T/C (endpoint: median survival time, dose: 10.0 mg/kg/injection, schedule: Q04DX003 (ip), vehicle: Klucel (hydroxypropylcellulose) (HPC)): 111 % of control | T/C (endpoint: median survival time, dose: 20.0 mg/kg/injection, schedule: Q04DX003 (ip), vehicle: Klucel (hydroxypropylcellulose) (HPC)): 113 % of control | T/C (endpoint: median survival time, dose: 40.0 mg/kg/injection, schedule: Q04DX003 (ip), vehicle: Klucel (hydroxypropylcellulose) (HPC)): 122 % of control | T/C (endpoint: median survival time, dose: 50.0 mg/kg/injection, schedule: Q04DX003 (ip), vehicle: Klucel (hydroxypropylcellulose) (HPC)): 101 % of control | T/C (endpoint: median survival time, dose: 80.0 mg/kg/injection, schedule: Q04DX003 (ip), vehicle: Klucel (hydroxypropylcellulose) (HPC)): 112 % of control | T/C (endpoint: median survival time, dose: 100.0 mg/kg/injection, schedule: Q04DX003 (ip), vehicle: Klucel (hydroxypropylcellulose) (HPC)): 107 % of control | T/C (endpoint: median survival time, dose: 200.0 mg/kg/injection, schedule: Q04DX003 (ip), vehicle: Klucel (hydroxypropylcellulose) (HPC)): 107 % of control

CC(=O)OC1CCCCC1C (configuration not stated)
T/C (endpoint: mean survival time, dose: 100.0 mg/kg/injection, schedule: Q01DX009 (ip), vehicle: saline with Tween-80): 105 % of control | T/C [4]: 105 % of control | T/C [5]: 100 % of control | T/C [7]: 110 % of control | T/C [9]: 102 % of control

O=C(Nc1ccccc1)c1c(O)[nH]c(=O)[nH]c1=O
T/C (endpoint: median survival time, dose: 25.0 mg/kg/injection, schedule: Q01DX009 (ip), vehicle: saline with Tween-80): 112 % of control [middle of 5 runs] | T/C (endpoint: median survival time, dose: 50.0 mg/kg/injection, schedule: Q01DX009 (ip), vehicle: saline with Tween-80): 124 % of control and 112 % of control and 108 % of control | T/C (endpoint: median survival time, dose: 200.0 mg/kg/injection, schedule: Q01DX009 (ip), vehicle: saline with Tween-80): 166 % of control and 179 % of control and 211 % of control | T/C (endpoint: median survival time, dose: 400.0 mg/kg/injection, schedule: Q01DX009 (ip), vehicle: saline with Tween-80): 233 % of control

Source: PubChem BioAssay AID256 (DTP/NCI, 2004)
